We go through 19 compounds from patent US9364474B2, “Method for treatment of neurologic dysfunction” (MedDEV, Inc., priority 2004, dated 2016).

The structures appear in SMILES notation.

Data set [1] relates to patient diagnosed with chronic schizophrenia. In words: Case example: patient with chronic schizophrenia, transdermal reserpine spray (with prior medication history). The format is in vivo, human. As to conditions: prior treatment.
The subject of a further data set is patient with Autism. In words: Case examples: patients with Autism (ASD), transdermal reserpine (with prior medication history). In kind it is in vivo, human. As to conditions: for success of prior treatments: ASD Example Three: person, prior treatments tried. The method, then:
The treatment composition is suitably applied in a single daily dose, e.g., 0.01 mg of the MAO-A agonist in 0.05 ml of spray solution applied once every morning.
Prior to administration of the present invention (transdermal reserpine), the patient's parents were provided with an informed consent documenting the potential risks, benefits and alternatives to this treatment. The patient was started on a dose of Reserpine at a 4× dilution resulting in a total dose of 0.01 mg. […] They were also given approximately 1400 mg of Calcium every morning.

The test system of another data set is MAO-A. As to conditions: Egashira et al (1996); Gnerre et al (2001); cited from earlier work.
A further data set addresses T1, MAO-B (Homo sapiens, UniProt P27338).
T1 sequence (P27338 1-520): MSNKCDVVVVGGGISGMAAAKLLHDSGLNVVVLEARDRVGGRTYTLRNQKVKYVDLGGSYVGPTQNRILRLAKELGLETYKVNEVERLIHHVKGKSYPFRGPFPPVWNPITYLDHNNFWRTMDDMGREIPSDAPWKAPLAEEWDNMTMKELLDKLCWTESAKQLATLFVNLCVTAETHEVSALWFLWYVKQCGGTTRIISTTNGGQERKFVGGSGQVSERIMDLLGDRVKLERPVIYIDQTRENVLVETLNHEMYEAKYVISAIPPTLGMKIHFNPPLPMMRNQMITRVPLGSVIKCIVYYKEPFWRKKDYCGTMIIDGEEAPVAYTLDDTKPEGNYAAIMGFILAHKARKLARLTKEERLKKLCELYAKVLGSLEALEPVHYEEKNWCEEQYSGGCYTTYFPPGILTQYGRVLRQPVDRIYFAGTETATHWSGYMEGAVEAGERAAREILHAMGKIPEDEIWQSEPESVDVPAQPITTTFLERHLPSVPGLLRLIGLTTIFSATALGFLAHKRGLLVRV
As to conditions: Egashira et al (1996); Gnerre et al (2001); cited from earlier work.

A further data set relates to aldehyde dehydrogenase. As to conditions: literature; cited from earlier work.
For data set [2], the system named is ethanol-preferring laboratory hamsters. As to conditions: cited from earlier work.
Data set [3] deals with patient suffering from depression. The following applies: Depression Example Four; taking nortriptyline. The method, then: The treatment composition is suitably applied in a single daily dose, e.g., 0.01 mg of the MAO-A agonist in 0.05 ml of transdermal cream applied once every morning. Caffeine may also be included in the composition to compensate for the anti-hypertensive effect of the preferred reserpine; the caffeine may suitably be included in an amount from about 50-100 mg/dose.
Treatment was in the form of 0.01 mg of reserpine per 0.05 ml of transdermal cream, applied transdermally once a day in the morning.
The treatment consisted of 0.01 mg of reserpine per 0.05 ml of cream, applied transdermally by rubbing the cream into the skin once a day in the morning.
The treatment consisted of 0.01 mg of the reserpine per 0.05 ml of cream, applied transdermally by rubbing the cream into the skin once a day in the morning.
The patient discontinued the use of nortriptyline and the same day started the treatment of the present invention, using 0.01 mg of the reserpine per 0.05 ml cream, applied transdermally by rubbing the cream into the skin once a day in the morning.
The patient then started the treatment of the present invention, using 0.01 mg of the MAO-A activity stimulator (reserpine) per 0.05 ml cream, applied transdermally by rubbing the cream into the skin once a day in the morning.

As to `O=C1CCc2ccc(OCCCCN3CCN(c4cccc(Cl)c4Cl)CC3)cc2N1` [Abilify], the “tolerability and efficacy of prior medication” value in data set [1] (Schizophrenia Example One) is recorded as “tolerated better but still had many symptoms unresolved”.
For `COC(=O)C(c1ccccc1)C1CCCCN1` (stereo not drawn) [Ritalin], the “success of prior treatments” value in the data set on patient with Autism was “none to minimal success”.
Take `OCCOCCN1CCN(C2=Nc3ccccc3Sc3ccccc32)CC1` [Seroquel]: in the data set with patient with Autism, the “success of prior treatments” value is listed as “none to minimal success”.
As for `CN(C)CCC=C1c2ccccc2CCc2ccccc21` [amitriptyline], the “activity towards MAO-A” value with MAO-A is “inhibitory activity”. The “activity towards MAO-B relative to MAO-A” value on MAO-B is on record as “clearly more potent selectivity for MAO-B”.
`CN(C)CCCN1c2ccccc2CCc2ccc(Cl)cc21` [clomipramine]: in the data set on MAO-A, the “activity towards MAO-A” value was “inhibitory activity”. Besides, the “activity towards MAO-B relative to MAO-A” value on MAO-B is recorded as “clearly more potent selectivity for MAO-B”.
Regarding `O=c1c(-c2ccc(O)cc2)coc2cc(O[C@@H]3O[C@H](CO)[C@@H](O)[C@H](O)[C@H]3O)ccc12` [daidzin], the “effect on aldehyde dehydrogenase” value in the data set on aldehyde dehydrogenase is on record as “inhibits aldehyde dehydrogenase”. In data set [2], the “effect on ethanol intake” value was “suppress ethanol intake”.
Turning to `CCCC(CCC)C(=O)O` [depakote], in the data set with patient with Autism, the “success of prior treatments” value was “none to minimal success”. In addition, the “side effects of prior medication” value in data set [1] (Schizophrenia Example One: person, discontinued) is “extremely lethargic and obese”.
For the compound `CN(C)CCC=C1c2ccccc2COc2ccccc21` [doxepine], in the data set on MAO-A, the “activity towards MAO-A” value is reported as “inhibitory activity”. Further, the “activity towards MAO-B relative to MAO-A” value on MAO-B is “clearly more potent selectivity for MAO-B”.
`CNCCC(Oc1ccc(C(F)(F)F)cc1)c1ccccc1` (stereo not drawn) [fluoxetine]: the “activity towards MAO-A” value with MAO-A is listed as “inhibitory activity”. Besides, the “activity towards MAO-B relative to MAO-A” value on MAO-B is listed as “clearly more potent selectivity for MAO-B”.
For `COCCCC/C(=N\OCCN)c1ccc(C(F)(F)F)cc1` [fluvoxamine], the “activity towards MAO-A” value in the data set on MAO-A is “inhibitory activity”. For the same compound, at MAO-B, the “activity towards MAO-B relative to MAO-A” value is recorded as “clearly more potent selectivity for MAO-B”.
As to `CN(C)CCCN1c2ccccc2CCc2ccccc21` [imipramine], in the data set on MAO-A, the “activity towards MAO-A” value is “inhibitory activity”. Moreover, on MAO-B, the “activity towards MAO-B relative to MAO-A” value is on record as “clearly more potent selectivity for MAO-B”.
For the compound `CNCCCC12CCC(c3ccccc31)c1ccccc12` [maprotiline], the “activity towards MAO-A” value in the data set on MAO-A is “inhibitory activity”. At MAO-B, the “activity towards MAO-B relative to MAO-A” value is recorded as “clearly more potent selectivity for MAO-B”.
On to `COc1ccc2[nH]cc(CCNC(C)=O)c2c1` [melatonin], for which the “success of prior treatments” value in the data set with patient with Autism is “none to minimal success”.
Same read-out and setting: then `O=C1CC[C@@]2(O)[C@H]3Cc4ccc(O)c5c4[C@@]2(CCN3CC2CC2)[C@H]1O5` [naltrexone], with “none to minimal success”.
Consider `CN1Cc2c(N)cccc2C(c2ccccc2)C1` (stereo not drawn) [nomifensine], for which the “activity towards MAO-A” value in the data set with MAO-A is listed as “inhibitory activity”. In addition, on MAO-B, the “activity towards MAO-B relative to MAO-A” value is recorded as “clearly more potent selectivity for MAO-B”.
For the compound `CNCCC=C1c2ccccc2CCc2ccccc21` [nortriptyline], the “symptoms persisting despite prior medication” value in data set [3] is “Decreased energy, fatigue • Early morning awakening”. For the same compound, the “activity towards MAO-A” value with MAO-A is on record as “inhibitory activity”. Moreover, the “activity towards MAO-B relative to MAO-A” value on MAO-B was “clearly more potent selectivity for MAO-B”.
Turning to `OCCOCCN1CCN(C2=Nc3ccccc3Sc3ccccc32)CC1` [quetiapine], the “functional benefit of prior medication” value in the data set on patient with Autism (ASD Example One, prior trials at therapeutic doses, only quetiapine of six medications) was “functional improvements”.
On to `CCOc1ccccc1OCC1CNCCO1` (stereo not drawn) [viloxazine], for which, in the data set on MAO-A, the “activity towards MAO-A” value is “inhibitory activity”. In addition, at MAO-B, the “activity towards MAO-B relative to MAO-A” value was “clearly more potent selectivity for MAO-B”.
As to `CN(C)C/C=C(/c1ccc(Br)cc1)c1cccnc1` [zimeldine], the “activity towards MAO-A” value with MAO-A is reported as “inhibitory activity”. Besides, the “activity towards MAO-B relative to MAO-A” value on MAO-B was “clearly more potent selectivity for MAO-B”.
